Laboratory results reported in BindingDB's records for doi:10.1016/j.chembiol.2005.12.008 (Academia Sinica, 2006).

Target: Replicase polyprotein 1ab (Severe acute respiratory syndrome coronavirus, UniProt P0C6X7)
Test: Inhibition Assay
Conditions: pH 7.5
Description: Inhibition assay against SARS-CoV 3CL protease, a fluorometric assay was utilized to determine the inhibition constants of the samples.

Q: With `Nc1ccc(C(O)Cn2nnc3ccccc32)cc1` (stereo not given) [Benzotriazole ester, 16] as the compound, how does the IC50 read?
A: > 50 µM

Q: How did the Ki turn out when `CN(C)c1ccc(C(O)Cn2nnc3ccccc32)cc1` (stereo not given) [Benzotriazole ester, 20] was run?
A: > 50 µM

Q: For `CNc1ccc(C(O)Cn2nnc3ccccc32)cc1` (stereo not given) [Benzotriazole ester, 19], which Ki is on record?
A: > 50 µM

Q: `O=C(Cn1nnc2ccccc21)c1ccc([N+](=O)[O-])cc1` [Benzotriazole ester, 13] was tested. Which IC50 did it give?
A: > 50 µM

Q: With `Nc1ccc(C(=O)Cn2nnc3ccccc32)cc1` [Benzotriazole ester, 15] as the compound, how does the IC50 read?
A: > 50 µM
